Where two headings read alike, the source gives them in different places.
How the values were obtained:
[1] = system: acetylcholine release from guinea pig hippocampus synaptosomes; assay: K+-evoked 3H-acetylcholine release from synaptosomes, effect of Aβs; format: cell-based; conditions: for IC50: read-out: ACh Release (IC50)
Experimental: Synaptosomes from guinea pig hippocampus were incubated with 0.1 μM ^3H-choline and then subjected to repeated washes to remove unincorporated ^3H-choline. The synaptosomes were treated with 65 mM K^+ for 30 seconds to elicit 3H-acetylcholine release.

[2] = target: 206-216 stretch of the human α7 nAChR (Homo sapiens, UniProt P36544); conditions: inhibitors 1 uM to 10 uM
[3] = target: T1, Aβ aggregation (Homo sapiens, UniProt P05067); assay: Aβ aggregation assay on Synthaloid plates with labelled Aβ1-40; format: biochemical
T1 construct: 100 nM of fluo-Aβ1-40 in 100 μl of each well of the 96-well Synthaloid plate; purchased Amersham Pharmacia Biotech (125I-Aβ1-40); Advanced Bioconcepts (fluo-Aβ1-40)
Experimental: Aβs are known to form aggregates leading to the formation of amyloid plaques that are characteristic of Alzheimer's disease. […] We have validated this aggregation assay using both ^125I-Aβ1-40 and fluo-Aβ1-40 in a buffer containing 50 mM HEPES, pH 7.4, 0.1% BSA, 10% FCS and protease inhibitors. About 500 pM of ^125I-Aβ1-40 or 100 nM of fluo-Aβ1-40 in 100 μl of each well of the 96-well Synthaloid plate was allowed to incubate for 2.5 hr at room temperature in the presence or absence of inhibitors. At the end of the incubation, unbound protein in the wells was removed by three washes using the above buffer. The amount of bound protein which represented Aβ aggregation was measured either by scintillation counting or fluorescence measurements.

[4] = 10 μM, read-out: % Inh Agg. (conc μM)

T1 sequence (P05067 672-711 limits assumed): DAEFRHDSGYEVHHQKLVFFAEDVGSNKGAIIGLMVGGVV

Row | % α7 nAChR 206-216 Binding ([2]; 125I-β-amyloid1-40 50 pM) [%] | % Inh Agg. (conc μM) ([3]; 10 μM) | Structure (SMILES) | % ACh Release at 10 μM [1] [%] | also measured
1 | 2 | <30 (10) % | COC(=O)[C@H](C)NC1Cc2c(OC)ccc(OC)c2CC1C (stereo partly drawn) [Compound 48, 5,8-Dimethoxy-2-[N-(L-alanylmethyl ester)]-3-methyl-1,2,3,4-tetrahydronaphthalene] | 0 | 
2 |  |  | CCCN(CCCc1ccccc1)C1Cc2c(O)ccc(O)c2CC1C (racemic) [Compound 20] |  | % Inh Agg. (conc μM) ([3]; 5 μM): 39 (5) %
3 |  |  | CCCN(C)C1Cc2c(OC)ccc(OC)c2CC1C (stereo not shown) [Compound 52] | 0 | % α7 nAChR 206-216 Binding ([2]; […]): 0%; inhibition at 10 µM [3, 4]: 60%
4 | 78 | <30 (10) % | C#CCN(CCC)C1Cc2c(O)ccc(OP(=O)(c3ccccc3)c3ccccc3)c2CC1C (stereo not shown) [Compound 56] | 8 | 
5 |  |  | CCCN(CC1CCCCC1)C1Cc2c(O)ccc(O)c2CC1C (racemic) [Compound 22] |  | % Inh Agg. (conc μM) ([3]; 50 μM): 38 (50) %
6 |  |  | CCCN(CC1CCCCC1)C1Cc2c(OC)ccc(OC)c2CC1C (racemic) [Compound 21] |  | % Inh Agg. (conc μM) ([3]; 5 μM): 20 (5) %
7 | 42 | <30 (10) % | CCCN(CCC)C1Cc2c(O)ccc(OP(=O)(c3ccccc3)c3ccccc3)c2CC1C (stereo not shown) [Compound 58] | 18 | 
8 | 34 | 50-90 (10) % | CCCN(CCCSC)C1Cc2c(O)ccc(O)c2CC1C (racemic) [Compound 28] |  | 
9 |  |  | CCCN(CCCc1ccccc1)C1Cc2c(OC)ccc(OC)c2CC1C (racemic) [Compound 19] |  | % Inh Agg. (conc μM) ([3]; 5 μM): 30 (5) %
10 |  | 85 (10) % | CCCN(Cc1ccccc1Cl)C1Cc2c(OC)ccc(OC)c2CC1C (racemic) [Compound 39] |  | 
11 |  | <30 (10) % | CCCN(Cc1ccc(I)cc1)C1Cc2c(O)ccc(O)c2CC1C (racemic) [Compound 36] |  | 
12 |  |  | CCCN(C)C1Cc2c(O)ccc(O)c2CC1C (stereo not shown) [Compound 53] | 18 | % α7 nAChR 206-216 Binding ([2]; […]): 0%; inhibition at 10 µM [3, 4]: 50 to 90%
13 |  |  | CCCN(Cc1cccs1)C1Cc2c(O)ccc(O)c2CC1C (racemic) [Compound 30] |  | % Inh Agg. (conc μM) ([3]; 5 μM): 38 (5) %
14 | 43 |  | CC1Cc2c(O)ccc(O)c2CC1N1CCOCC1 (stereo not drawn) [Compound 24, 5,8-Dihydroxy-cis-2-(1-morpholinyl)-3-methyl-1,2,3,4-tetrahydronaphthalene] |  | 
15 | 54 |  | COc1ccc(OC)c2c1C[C@@H](N1CCOCC1)[C@@H](C)C2 (relative stereo) [Compound 23, 5,8-Dimethoxy-cis-2-(1-morpholinyl)-3-methyl-1,2,3,4-tetrahydronaphthalene] |  | 
16 | 63 | <30 (10) % | C#CCN(CCC)C1Cc2c(OP(=O)(c3ccccc3)c3ccccc3)ccc(OP(=O)(c3ccccc3)c3ccccc3)c2CC1C (stereo not shown) [Compound 57] | 11 | 
17 |  |  | CCCN(CCC)C1Cc2c(O)ccc(OC)c2CC1C (stereo not drawn) [Compound 46, 5-Methoxy-8-hydroxy-trans-2-di(N-propylamino)-3-methyl-1,2,3,4-tetrahydronaphthalene] | 0 | % α7 nAChR 206-216 Binding ([2]; […]): 18%; inhibition at 10 µM [3, 4]: 50 to 90%

Row | % α7 nAChR 206-216 Binding ([2]; 125I-β-amyloid1-40 50 pM) [%] | % Inh Agg. (conc μM) ([3]; 10 μM) | Structure (SMILES) | % ACh Release at 10 μM [1] [%] | also measured
18 |  | <30 (10) % | CCCN(Cc1ccc(O)cc1)C1Cc2c(O)ccc(O)c2CC1C (racemic) [Compound 38] |  | 
19 | 0 | 50-90 (10) % | CCCN(CCC(C)CCC=C(C)C)C1Cc2c(O)ccc(O)c2CC1C (stereo not shown) [Compound 55] | 15 | 
20 | 19 | <30(10) % | CCCN(Cc1ccc(C)cc1)C1Cc2c(OC)ccc(OC)c2CC1C (racemic) [Compound 41] | 14 | 
21 |  | 75 (10) % | CCCN(Cc1ccccc1Cl)C1Cc2c(O)ccc(O)c2CC1C (racemic) [Compound 40] |  | 
22 | 48 |  | CCCN(Cc1ccccc1)C1Cc2c(OC)ccc(OC)c2CC1C (racemic) [Compound 25] |  | 
23 |  |  | CCCNC1Cc2c(OC)ccc(OC)c2CC1C (stereo not shown) [Compound 7, 5,8-Dimethoxy-2-N-propylamino-3-methyl-1,2,3,4-tetrahydronaphthalene] |  | inhibition at 100 µM ([3]; 100 μM, read-out: % Inh Agg. (conc μM)): 50%
24 | 0 |  | COc1ccc(OC)c2c1C[C@H](C)[C@H](Nc1ccc(OCCN3CCCCC3)cc1)C2 (relative stereo) [Compound 60, 5,8-Dimethoxy-cis-2-[N-(4-(2-(1-piperidinyl)ethoxy)phenyl)]amino-3-methyl-1,2,3,4-tetrahydronaphthalene] | 24 | % Inh Agg. (result in words) ([3]; concentration not given): very active
25 |  |  | CCCN(CCC)C1Cc2c(OC)ccc(OC)c2CC1C (stereo not drawn) [Compound 8, 5,8-Dimethoxy-trans-2-di(N-propylamino)-3-methyl-1,2,3,4-tetrahydronaphthalene] |  | IC50 ([1]; Cavia porcellus): 0.7 µM; inhibition at 10 µM [3, 4]: 50 to 90%
26 |  | <30 (10) % | CCCCOc1ccc(CN(CCC)C2Cc3c(OC)ccc(OC)c3CC2C)cc1 (racemic) [Compound 37] |  | 
27 |  | 60 (10) % | CCCN(Cc1ccc(C)cc1)C1Cc2c(O)ccc(O)c2CC1C (racemic) [Compound 42] |  | 
28 | 0 | 50-90 (10) % | CCCN(CCC(C)CCC=C(C)C)C1Cc2c(OC)ccc(OC)c2CC1C (stereo not shown) [Compound 54] | 0 | 
29 |  |  | CCCN(CCC)C1Cc2c(O)ccc(O)c2CC1C (stereo not shown) [Compound 15] |  | IC50 [1]: 0.25 µM; % α7 nAChR 206-216 Binding ([2]; […]): 85%; inhibition at 10 µM [3, 4]: 50 to 90%
30 |  | 38 (10) % | CCCN(Cc1ccc(I)cc1)C1Cc2c(OC)ccc(OC)c2CC1C (racemic) [Compound 35] |  | 
31 | 64 | <30 (10) % | CCCN(Cc1ccccc1)C1Cc2c(O)ccc(O)c2CC1C (racemic) [Compound 26] |  | 
32 |  | 12 (10) % | CCCN(Cc1cccs1)C1Cc2c(OC)ccc(OC)c2CC1C (racemic) [Compound 29] |  | 
33 |  |  | CCCN(CCC)C1Cc2c(OC)ccc(O)c2CC1C (stereo not drawn) [Compound 45, 5-Hydroxy-8-methoxy-trans-2-di(N-propylamino)-3-methyl-1,2,3,4-tetrahydronaphthalene] | 78 | inhibition at 78 µM ([3]; 78 μM as printed, read-out: % Inh Agg. (conc μM)): 30 to 50%

Row | Structure (SMILES) | % α7 nAChR 206-216 Binding ([2]; 125I-β-amyloid1-40 50 pM) [%] | % Inh Agg. (conc μM) ([3]; 10 μM) | % ACh Release at 10 μM [1] [%] | also measured
34 | CCCN(CCC)C1Cc2c(O)ccc(OCC=C(C)C)c2CC1C (racemic) [Compound 43] | 10 | 50-90 (10) % | 0 | 
35 | C#CCN(CCC)C1Cc2c(O)ccc(O)c2CC1C (racemic) [Compound 32] |  | 69 (10) % |  | 
36 | CCCN(CCC)C1Cc2c(OC)ccc(OC)c2CC1C (single isomer, unassigned) [Compound 17] |  | >90 (10) % | 63 | IC50 [1]: 1 µM
37 | CCCN(CCC)C1Cc2c(OC)ccc(OC)c2CC1C (single isomer, unassigned) [Compound 18] |  | 50-90 (10) % | 70 | IC50 [1]: 10 µM
38 | C#CCN(CCC)C1Cc2c(O)ccc(O)c2CC1C (racemic) [Compound 34] |  | 69 (10) % |  | 
39 | C#CCN(CCC)C1Cc2c(OC)ccc(OC)c2CC1C (racemic) [Compound 31, 5,8-Dimethoxy-cis and trans-2-(N-propyl-N-propargyl)amino-3-methyl-1,2,3,4-tetrahydronaphthalene] |  | 34 (10) % |  | 

— US6441049B2, “Method of treating neurodegenerative disorders via inhibition of amyloid beta peptide binding” (Ortho-McNeil Pharmaceutical, Inc., priority 1998, dated 2002)
